Data reported in PubChem BioAssay (NCI).
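Briefly, cells in 96-well plates were exposed to five compound concentrations for 48 h, and endpoints were estimated by linear interpolation. GI50 = concentration required for 50% inhibition of growth. TGI: total growth inhibition.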

Columns and labels:
Assay in all cases: NCI tumour cell line growth inhibition, 48 h
K-562 leukemia = system: K-562 leukemia
LOX IMVI melanoma = system: LOX IMVI melanoma
RXF 393 renal = system: RXF 393 renal
ACHN renal = system: ACHN renal
M14 melanoma = system: M14 melanoma
UACC-257 melanoma = system: UACC-257 melanoma
SF-539 CNS = system: SF-539 CNS
A549 NSCLC = system: A549 NSCLC
NCI/ADR-RES ovarian = system: NCI/ADR-RES ovarian
KM12 colon = system: KM12 colon

Compound	TGI (K-562 leukemia) [µM]	TGI (LOX IMVI melanoma) [µM]	TGI (RXF 393 renal) [µM]	TGI (ACHN renal) [µM]	TGI (M14 melanoma) [µM]	TGI (UACC-257 melanoma) [µM]	TGI (SF-539 CNS) [µM]	TGI (A549 NSCLC) [µM]	TGI (NCI/ADR-RES ovarian) [µM]	TGI (KM12 colon) [µM]	GI50 (K-562 leukemia) [µM]	GI50 (LOX IMVI melanoma) [µM]	GI50 (RXF 393 renal) [µM]	GI50 (ACHN renal) [µM]	GI50 (NCI/ADR-RES ovarian) [µM]	GI50 (M14 melanoma) [µM]	GI50 (KM12 colon) [µM]	GI50 (UACC-257 melanoma) [µM]	GI50 (SF-539 CNS) [µM]	GI50 (A549 NSCLC) [µM]
COc1ccc(C(=O)Cc2cc(OC)ccc2OC)cc1	> 100	> 100	> 100	> 100	> 100	> 100	> 100	> 100	–	–	–	–	–	–	–	–	–	–	–	–
CC(C)=CCN(N=O)c1ncnc2nc[nH]c12	> 100	> 100	> 100	> 100	> 100	> 100	> 100	> 100	> 100	> 100	–	–	–	–	–	–	–	–	–	–
COc1ccccc1C1C(C#N)=C(N)OC2=C1C(=O)CCC2 (configuration not stated)	> 100	> 100	> 100	> 100	> 100	> 100	> 100	> 100	> 100	> 100	> 100	> 100	> 100	> 100	> 100	> 100	> 100	> 100	> 100	> 100
CCCCc1ccc2[n+](c1)C(C(=O)OCC)=PC2 (configuration not stated)	–	–	> 100	> 100	> 100	> 100	> 100	> 100	–	> 100	–	–	–	–	–	–	–	–	–	–
O=C1c2ccccc2-c2ccc(NC(=O)C3CCCCC3C(=O)O)cc21 (configuration not stated)	> 100	> 100	> 100	> 100	> 100	> 100	> 100	> 100	> 100	> 100	–	–	–	–	–	–	–	–	–	–
O=CNc1cccc2c3c([nH]c12)CCCCCC3	> 100	> 100	> 100	–	–	> 100	> 100	> 100	> 100	> 100	–	–	–	–	–	–	–	–	–	–
C=C1C(=O)O[C@H]2C1[C@H](OC(=O)/C(C)=C\COC(C)=O)C[C@]1(CO1)[C@@H]1[C@H](O)[C@H]3O[C@@]3(C)[C@@H]12 (some centres not stated)	27	37.2	32.9	–	–	31.3	> 65.4	> 100	54.7	29.5	–	–	–	–	–	–	–	–	–	–
COC(=O)C(C)N1C(=O)c2ccccc2I1OC(C)=O (configuration not stated)	> 100	34.8	> 100	> 100	–	> 100	> 100	> 100	> 100	> 100	41.6	16.1	32.3	30.2	> 100	–	> 100	> 100	31.7	> 100
CCOC(=O)C1C(c2cc(OC)c(O)c(OC)c2)c2cc3c(cc2OC1(C)O)OCO3 (configuration not stated)	> 100	> 100	–	> 100	> 100	> 100	> 100	> 100	–	–	–	–	–	–	–	–	–	–	–	–
COc1cc(N=Nc2cccc(S(=O)(=O)O)c2)c(C)cc1N=Nc1ccc(/C=C/c2ccc(N=[N+]([O-])c3ccc(/C=C/c4ccc(N=Nc5cc(C)c(N=Nc6cccc(S(=O)(=O)O)c6)cc5OC)cc4)c(S(=O)(=O)O)c3)cc2S(=O)(=O)O)cc1	> 100	> 100	> 100	–	–	> 100	> 100	> 100	> 100	> 100	–	–	–	–	–	–	–	–	–	–
Cc1cc(NS(=O)(=O)c2ccc(Nc3c4ccccc4nc4c(C(=O)NCCN(C)C)ccc(Cl)c34)cc2)no1	21.2	10.9	22.8	12.3	17.6	–	14.6	17.3	–	19.3	–	–	–	–	–	–	–	–	–	–
